Measured values as given in ChEMBL document CHEMBL5465560, “Selectivity Literature for EUbOPEN Chemogenomic Library” (2024).
Each block holds one molecule with its values, some of them ahead of it.

Key:
[1] = biological target: Platelet-derived growth factor receptor beta (Homo sapiens, UniProt P09619); test: Selectivity interaction (KinomeScan (DiscoverX)) EUB0000666a PDGFRB; conditions: at 10 µM
[2] = biological target: Casein kinase I isoform delta (Homo sapiens, UniProt P48730); test: Selectivity interaction (KinomeScan (DiscoverX)) EUB0000666a CSNK1D; conditions: at 10 µM
Chain of Casein kinase I isoform delta (P48730 whole entry, looked up, canonical isoform): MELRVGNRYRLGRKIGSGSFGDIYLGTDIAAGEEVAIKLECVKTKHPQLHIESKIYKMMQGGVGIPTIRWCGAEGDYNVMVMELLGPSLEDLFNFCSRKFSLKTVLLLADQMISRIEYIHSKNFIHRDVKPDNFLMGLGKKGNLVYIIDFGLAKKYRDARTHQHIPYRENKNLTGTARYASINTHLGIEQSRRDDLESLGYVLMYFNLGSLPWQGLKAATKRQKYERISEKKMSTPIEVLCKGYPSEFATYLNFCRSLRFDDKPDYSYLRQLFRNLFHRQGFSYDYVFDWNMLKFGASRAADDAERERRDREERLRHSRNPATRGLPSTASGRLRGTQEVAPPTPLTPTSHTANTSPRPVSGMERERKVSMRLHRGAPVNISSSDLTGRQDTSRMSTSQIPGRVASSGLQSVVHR

[3] = biological target: Tyrosine-protein kinase HCK (Homo sapiens) (UniProt P08631); test: Selectivity interaction (KinomeScan (DiscoverX)) EUB0000607a HCK; conditions: at 10 µM
[4] = biological target: Cyclin-dependent kinase 2 (Homo sapiens, UniProt P24941); test: Selectivity interaction (KinomeScan (DiscoverX)) EUB0000607a CDK2; conditions: at 10 µM
[5] = biological target: Dual specificity protein kinase CLK3 (Homo sapiens, UniProt P49761); conditions: at 10 µM
Chain of Dual specificity protein kinase CLK3 (P49761 whole entry, looked up): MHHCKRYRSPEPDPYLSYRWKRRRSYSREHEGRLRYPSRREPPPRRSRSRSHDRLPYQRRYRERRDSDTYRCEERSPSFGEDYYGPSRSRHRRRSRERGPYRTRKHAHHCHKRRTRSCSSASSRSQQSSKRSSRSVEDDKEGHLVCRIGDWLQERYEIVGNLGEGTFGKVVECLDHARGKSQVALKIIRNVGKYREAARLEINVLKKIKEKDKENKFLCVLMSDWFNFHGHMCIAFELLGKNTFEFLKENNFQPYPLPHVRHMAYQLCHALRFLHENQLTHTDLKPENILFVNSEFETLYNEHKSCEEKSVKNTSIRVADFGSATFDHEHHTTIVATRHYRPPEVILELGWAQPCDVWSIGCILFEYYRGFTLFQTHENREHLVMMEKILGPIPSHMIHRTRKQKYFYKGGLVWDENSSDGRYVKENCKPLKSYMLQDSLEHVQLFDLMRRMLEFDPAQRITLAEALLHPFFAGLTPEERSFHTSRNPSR

[6] = biological target: Tyrosine-protein kinase Lck (Homo sapiens, UniProt P06239); test: Selectivity interaction (KinomeScan (DiscoverX)) EUB0001049a LCK; conditions: at 1 µM
Chain of Tyrosine-protein kinase Lck (P06239 2-509 limits assumed): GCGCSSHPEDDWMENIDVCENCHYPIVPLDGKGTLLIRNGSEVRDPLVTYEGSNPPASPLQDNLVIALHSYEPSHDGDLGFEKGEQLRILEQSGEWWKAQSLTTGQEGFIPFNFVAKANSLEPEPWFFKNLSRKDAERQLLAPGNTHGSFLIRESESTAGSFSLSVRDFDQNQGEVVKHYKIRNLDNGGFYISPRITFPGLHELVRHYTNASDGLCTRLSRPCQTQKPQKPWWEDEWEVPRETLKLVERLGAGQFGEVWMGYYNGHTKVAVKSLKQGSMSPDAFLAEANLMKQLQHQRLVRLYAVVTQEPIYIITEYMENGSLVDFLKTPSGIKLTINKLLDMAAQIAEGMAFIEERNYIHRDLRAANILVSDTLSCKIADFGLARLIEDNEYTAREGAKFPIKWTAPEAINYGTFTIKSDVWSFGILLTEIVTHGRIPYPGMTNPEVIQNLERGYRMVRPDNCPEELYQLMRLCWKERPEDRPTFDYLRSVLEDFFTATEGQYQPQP

[7] = biological target: T1, Aurora kinase C (Homo sapiens) (UniProt Q9UQB9); test: Selectivity interaction (Ambit KINOMEscan and KiNATiv profiling in Jurkat cells) EUB0000090b AURKC; assay type: cell-based; conditions: at 1 µM
T1 sequence (whole entry): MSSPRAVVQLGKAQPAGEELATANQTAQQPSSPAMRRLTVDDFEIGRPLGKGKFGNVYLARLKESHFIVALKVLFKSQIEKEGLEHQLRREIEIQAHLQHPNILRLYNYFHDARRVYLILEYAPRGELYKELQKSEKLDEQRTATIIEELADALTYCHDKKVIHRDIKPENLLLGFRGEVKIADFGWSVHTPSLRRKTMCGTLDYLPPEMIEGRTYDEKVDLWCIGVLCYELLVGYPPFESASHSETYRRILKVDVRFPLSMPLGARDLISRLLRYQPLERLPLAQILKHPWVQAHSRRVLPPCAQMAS

[8] = biological target: T2, Tyrosine-protein kinase Tec (Homo sapiens) (UniProt P42680); test: Selectivity interaction (KinomeScan (DiscoverX)) EUB0000655a TEC; conditions: at 10 µM
T2 sequence (whole entry): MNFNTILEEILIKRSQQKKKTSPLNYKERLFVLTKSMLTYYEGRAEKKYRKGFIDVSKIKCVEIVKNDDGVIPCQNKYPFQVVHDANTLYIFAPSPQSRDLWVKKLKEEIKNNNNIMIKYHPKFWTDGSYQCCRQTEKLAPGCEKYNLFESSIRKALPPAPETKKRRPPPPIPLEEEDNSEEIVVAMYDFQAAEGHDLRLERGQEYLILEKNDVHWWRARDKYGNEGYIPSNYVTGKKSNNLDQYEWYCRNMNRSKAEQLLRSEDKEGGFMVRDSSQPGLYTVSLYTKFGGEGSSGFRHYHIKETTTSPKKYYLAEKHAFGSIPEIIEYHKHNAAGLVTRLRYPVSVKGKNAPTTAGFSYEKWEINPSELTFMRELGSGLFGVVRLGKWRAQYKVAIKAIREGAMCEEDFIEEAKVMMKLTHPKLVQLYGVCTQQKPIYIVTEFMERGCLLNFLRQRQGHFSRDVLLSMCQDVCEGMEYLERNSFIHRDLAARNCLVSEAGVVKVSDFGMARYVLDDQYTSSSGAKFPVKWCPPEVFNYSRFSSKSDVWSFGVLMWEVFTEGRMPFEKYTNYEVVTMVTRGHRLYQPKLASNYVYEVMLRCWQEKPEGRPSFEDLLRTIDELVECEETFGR

[9] = biological target: Mitogen-activated protein kinase 6 (Homo sapiens) (UniProt Q16659); test: Selectivity interaction (KinomeScan (DiscoverX)) EUB0001079a MAPK6; conditions: at 1 µM
Chain of Mitogen-activated protein kinase 6 (Homo sapiens) (Q16659 whole entry): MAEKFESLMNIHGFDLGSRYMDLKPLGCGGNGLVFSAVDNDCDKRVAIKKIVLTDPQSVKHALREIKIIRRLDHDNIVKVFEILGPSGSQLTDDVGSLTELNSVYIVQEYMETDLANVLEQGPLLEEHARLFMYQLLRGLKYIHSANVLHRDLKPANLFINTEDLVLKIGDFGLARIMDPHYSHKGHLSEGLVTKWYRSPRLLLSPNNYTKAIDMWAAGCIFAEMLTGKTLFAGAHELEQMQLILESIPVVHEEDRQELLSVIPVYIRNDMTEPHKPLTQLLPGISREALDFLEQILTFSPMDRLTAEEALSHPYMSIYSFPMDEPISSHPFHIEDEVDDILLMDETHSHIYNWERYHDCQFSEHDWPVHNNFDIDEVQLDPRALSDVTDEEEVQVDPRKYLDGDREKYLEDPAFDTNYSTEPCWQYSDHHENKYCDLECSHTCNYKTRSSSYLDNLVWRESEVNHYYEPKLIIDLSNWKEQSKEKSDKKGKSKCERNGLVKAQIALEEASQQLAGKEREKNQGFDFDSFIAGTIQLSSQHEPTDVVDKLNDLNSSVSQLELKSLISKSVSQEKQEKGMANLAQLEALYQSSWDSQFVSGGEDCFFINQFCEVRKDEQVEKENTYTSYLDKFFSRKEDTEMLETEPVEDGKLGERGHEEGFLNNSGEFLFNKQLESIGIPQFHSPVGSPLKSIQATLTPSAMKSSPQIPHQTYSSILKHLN

[10] = biological target: Casein kinase II subunit alpha' (Homo sapiens) (UniProt P19784); test: Selectivity interaction (Kinase panel (KiNativ target engagement assay in Jurkat cells)) EUB0001635a CSNK2A2; assay type: cell-based; conditions: Selectivity number of off-targets 0.0, Selectivity number of targets 233.0, Source Knowledge https://www.sciencedirect.com/science/article/pii/S2451945619300674?via%3Dihub, at 1 µM
Chain of Casein kinase II subunit alpha' (Homo sapiens) (P19784 whole entry, looked up): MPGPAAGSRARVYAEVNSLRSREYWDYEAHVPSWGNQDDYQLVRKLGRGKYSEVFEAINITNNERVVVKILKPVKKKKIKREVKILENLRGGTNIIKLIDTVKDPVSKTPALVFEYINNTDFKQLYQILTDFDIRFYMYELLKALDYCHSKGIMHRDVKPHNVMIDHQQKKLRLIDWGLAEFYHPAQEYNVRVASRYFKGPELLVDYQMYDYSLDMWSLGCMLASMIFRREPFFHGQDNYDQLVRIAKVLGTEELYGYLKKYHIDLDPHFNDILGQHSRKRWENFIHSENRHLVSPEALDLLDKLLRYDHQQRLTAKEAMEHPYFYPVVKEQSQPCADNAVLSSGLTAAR

[11] = biological target: T3, Aurora kinase A (Homo sapiens) (UniProt O14965); test: Selectivity interaction (Kinase panel (Carna Biosciences)) EUB0001542aTs STK6; conditions: at 1 µM
T3 sequence (whole entry): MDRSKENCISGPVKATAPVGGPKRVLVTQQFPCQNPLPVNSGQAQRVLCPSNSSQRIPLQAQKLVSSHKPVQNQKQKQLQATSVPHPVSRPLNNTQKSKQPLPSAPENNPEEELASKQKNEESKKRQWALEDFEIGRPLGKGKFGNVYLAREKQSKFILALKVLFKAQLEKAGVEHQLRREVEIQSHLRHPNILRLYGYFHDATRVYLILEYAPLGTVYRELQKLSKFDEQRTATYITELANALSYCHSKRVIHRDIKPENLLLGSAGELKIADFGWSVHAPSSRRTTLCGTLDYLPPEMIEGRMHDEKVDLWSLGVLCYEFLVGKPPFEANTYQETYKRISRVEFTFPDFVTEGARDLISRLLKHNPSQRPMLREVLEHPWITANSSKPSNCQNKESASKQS

[12] = biological target: Casein kinase I isoform gamma-3 (Homo sapiens) (UniProt Q9Y6M4); conditions: at 10 µM
Chain of Casein kinase I isoform gamma-3 (Homo sapiens) (Q9Y6M4 whole entry, looked up, canonical isoform): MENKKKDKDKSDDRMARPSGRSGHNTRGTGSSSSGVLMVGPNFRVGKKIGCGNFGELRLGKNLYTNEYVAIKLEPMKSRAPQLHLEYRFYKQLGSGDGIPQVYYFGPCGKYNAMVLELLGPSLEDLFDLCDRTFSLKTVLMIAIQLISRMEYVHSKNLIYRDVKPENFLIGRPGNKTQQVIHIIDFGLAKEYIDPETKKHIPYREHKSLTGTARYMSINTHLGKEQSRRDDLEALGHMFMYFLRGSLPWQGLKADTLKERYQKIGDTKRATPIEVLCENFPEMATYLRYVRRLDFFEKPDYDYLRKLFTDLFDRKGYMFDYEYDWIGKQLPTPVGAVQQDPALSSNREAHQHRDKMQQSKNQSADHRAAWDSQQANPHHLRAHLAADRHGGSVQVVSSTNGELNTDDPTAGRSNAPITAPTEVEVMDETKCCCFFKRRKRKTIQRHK

[13] = biological target: T4, Homeodomain-interacting protein kinase 4 (Homo sapiens) (UniProt Q8NE63); conditions: at 10 µM
T4 sequence (whole entry): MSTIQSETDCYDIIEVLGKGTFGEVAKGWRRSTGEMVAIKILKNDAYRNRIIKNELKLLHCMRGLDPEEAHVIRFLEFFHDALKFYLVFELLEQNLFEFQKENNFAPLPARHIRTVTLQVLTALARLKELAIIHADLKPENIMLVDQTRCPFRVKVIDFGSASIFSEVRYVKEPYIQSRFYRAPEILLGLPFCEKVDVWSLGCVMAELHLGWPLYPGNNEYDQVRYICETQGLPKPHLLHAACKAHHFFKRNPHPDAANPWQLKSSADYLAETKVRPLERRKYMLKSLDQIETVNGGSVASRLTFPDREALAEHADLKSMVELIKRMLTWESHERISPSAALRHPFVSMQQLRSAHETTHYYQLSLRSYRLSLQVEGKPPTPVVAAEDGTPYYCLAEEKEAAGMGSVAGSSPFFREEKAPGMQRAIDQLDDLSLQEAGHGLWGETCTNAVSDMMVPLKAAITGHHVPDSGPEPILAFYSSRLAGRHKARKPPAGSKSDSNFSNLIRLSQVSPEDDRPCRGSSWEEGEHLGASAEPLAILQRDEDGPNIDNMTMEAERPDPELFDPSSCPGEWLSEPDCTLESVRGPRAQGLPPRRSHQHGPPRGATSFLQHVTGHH

[14] = biological target: Ribosomal protein S6 kinase alpha-2 (Homo sapiens) (UniProt Q15349); test: Selectivity interaction (ActivX KiNativ screen (ex vivo kinase selectivity in human PBMCs)) EUB0001619a RPS6KA2; assay type: cell-based; conditions: PBMC, at 1 µM
Chain of Ribosomal protein S6 kinase alpha-2 (Homo sapiens) (Q15349 whole entry): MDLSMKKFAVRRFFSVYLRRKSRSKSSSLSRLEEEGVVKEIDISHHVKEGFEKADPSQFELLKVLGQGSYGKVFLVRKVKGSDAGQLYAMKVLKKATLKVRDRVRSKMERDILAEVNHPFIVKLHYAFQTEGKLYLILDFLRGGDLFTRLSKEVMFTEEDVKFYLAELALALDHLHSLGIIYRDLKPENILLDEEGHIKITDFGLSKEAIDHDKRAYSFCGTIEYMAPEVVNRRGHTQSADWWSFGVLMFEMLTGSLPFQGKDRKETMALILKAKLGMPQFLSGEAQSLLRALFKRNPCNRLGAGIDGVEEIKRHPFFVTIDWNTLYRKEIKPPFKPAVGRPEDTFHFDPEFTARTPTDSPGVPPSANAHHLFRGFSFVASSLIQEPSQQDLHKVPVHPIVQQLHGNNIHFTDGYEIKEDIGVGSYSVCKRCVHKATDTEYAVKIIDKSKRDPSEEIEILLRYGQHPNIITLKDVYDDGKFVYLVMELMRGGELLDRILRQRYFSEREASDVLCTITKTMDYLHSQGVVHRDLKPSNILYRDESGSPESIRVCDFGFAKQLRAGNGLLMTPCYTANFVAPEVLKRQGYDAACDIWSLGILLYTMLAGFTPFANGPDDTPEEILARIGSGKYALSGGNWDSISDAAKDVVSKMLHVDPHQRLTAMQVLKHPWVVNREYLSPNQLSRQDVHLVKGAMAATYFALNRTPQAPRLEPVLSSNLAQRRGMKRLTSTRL

[15] = test system: Epidermal growth factor receptor (Homo sapiens), P00533 [UNDEFINED MUTATION]; test: Selectivity interaction (KinomeScan (DiscoverX)) EUB0001619a EGFR; conditions: at 1 µM
Chain of Epidermal growth factor receptor (Homo sapiens), P00533 [UNDEFINED MUTATION] (P00533 whole entry, looked up, change not shown): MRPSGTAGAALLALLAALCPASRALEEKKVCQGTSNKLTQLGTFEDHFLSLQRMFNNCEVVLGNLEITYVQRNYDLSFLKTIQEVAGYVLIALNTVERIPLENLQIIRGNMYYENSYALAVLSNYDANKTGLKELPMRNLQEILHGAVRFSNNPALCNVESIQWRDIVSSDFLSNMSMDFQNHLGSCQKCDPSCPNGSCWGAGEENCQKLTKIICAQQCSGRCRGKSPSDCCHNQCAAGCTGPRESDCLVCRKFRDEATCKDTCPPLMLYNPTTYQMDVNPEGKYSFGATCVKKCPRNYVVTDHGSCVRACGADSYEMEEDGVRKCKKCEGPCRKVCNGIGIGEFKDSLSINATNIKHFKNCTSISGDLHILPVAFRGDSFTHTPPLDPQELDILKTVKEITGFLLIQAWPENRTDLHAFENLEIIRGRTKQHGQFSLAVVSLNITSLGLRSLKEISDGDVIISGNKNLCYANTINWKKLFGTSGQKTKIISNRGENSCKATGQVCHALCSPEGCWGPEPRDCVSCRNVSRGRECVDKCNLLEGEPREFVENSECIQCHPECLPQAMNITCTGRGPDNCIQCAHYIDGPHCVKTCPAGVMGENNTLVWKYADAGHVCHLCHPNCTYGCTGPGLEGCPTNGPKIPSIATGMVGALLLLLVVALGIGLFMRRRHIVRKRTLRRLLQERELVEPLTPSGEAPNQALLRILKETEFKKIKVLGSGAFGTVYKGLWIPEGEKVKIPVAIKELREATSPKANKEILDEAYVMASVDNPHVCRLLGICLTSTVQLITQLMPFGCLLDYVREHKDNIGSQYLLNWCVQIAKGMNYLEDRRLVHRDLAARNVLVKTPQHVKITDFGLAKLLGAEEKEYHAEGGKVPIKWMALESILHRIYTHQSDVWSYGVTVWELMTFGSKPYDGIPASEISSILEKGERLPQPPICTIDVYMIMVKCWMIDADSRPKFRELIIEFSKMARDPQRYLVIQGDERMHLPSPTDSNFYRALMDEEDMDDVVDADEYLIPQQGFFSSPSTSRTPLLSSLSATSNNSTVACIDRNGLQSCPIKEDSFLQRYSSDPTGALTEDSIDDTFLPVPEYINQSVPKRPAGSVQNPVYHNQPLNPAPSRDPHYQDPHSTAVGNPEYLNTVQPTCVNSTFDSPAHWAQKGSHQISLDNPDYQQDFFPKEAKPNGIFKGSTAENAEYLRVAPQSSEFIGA

Structure (SMILES): O=C(NOC[C@H](O)CO)c1ccc(F)c(F)c1Nc1ccc(I)cc1F
% of control [1]: 66%
% of control [2]: 100%

Structure (SMILES): CNC(=O)Nc1ccc(-c2nc(N3CC4CCC(C3)O4)c3cnn(C4CCC5(CC4)OCCO5)c3n2)cc1
% of control [3]: 100%
% of control [4]: 92%

% of control [5]: 100%
Structure (SMILES): CCN(CC)CCCCNc1ncc2cc(-c3cc(OC)cc(OC)c3)c(NC(=O)NC(C)(C)C)nc2n1

Structure (SMILES): COc1cc(Nc2nc(C)cc(-c3cnn4nc(OC)ccc34)n2)cc(C(F)(F)F)c1
% of control [6]: 96%

Structure (SMILES): CN(C)C/C=C/C(=O)Nc1ccc(C(=O)N2CCCC(Nc3ncc(Cl)c(-c4c[nH]c5ccccc45)n3)C2)cc1 (stereo not given)
% of control [7]: 100%

Structure (SMILES): CN(C)CCOc1ccc(-c2nc(-c3ccncc3)c(-c3ccc4c(c3)CC/C4=N\O)[nH]2)cc1
% of control [8]: 91%

Structure (SMILES): Nc1cnc(N2CCc3cc(S(=O)(=O)Nc4c(F)cc(Cl)cc4F)cc(N4CCCC4=O)c32)nc1 [TP-020n]
% of control [9]: 100%

Structure (SMILES): C=CC(=O)Nc1ccc(C(=O)Nc2[nH]nc3c2CN(C(=O)N[C@H](CN(C)C)c2ccccc2)C3(C)C)cc1
% of engagement [10]: -0.9%

% of inhibition [11]: 97%
Structure (SMILES): Cn1cc(Nc2nccc(N3CC4CCC(C3)N4C(=O)[C@@H]3CC3(F)F)n2)cn1

Structure (SMILES): Cc1cc([C@@H](C)Nc2ccccc2C(=O)O)c2nc(N3CCOCC3)cc(=O)n2c1 [AZD-6482]
% of control [12]: 100%
% of control [13]: 100%

Structure (SMILES): N#Cc1cccc(-c2c[nH]c3ncnc(N4CCOCC4)c23)c1
% of inhibition [14]: -3%
% of control [15]: 79%
